Test results published in patent US20240010589A1, “SUBSTITUTED RESORCINOL COMPOUNDS AS AMPK ACTIVATORS, COMPOSITIONS, METHODS AND USES THEREOF” (SOCIETE DES PRODUITS NESTLE S.A., priority 2020, published 2024).
Entries after “also recorded” stand apart in the source; their conditions may differ.

Experiments:
AMPK = test: pACC HTRF assay (Cisbio) in U-2 OS Flp-In T-REx cells; format: cell-based; details: varying concentrations, 30 mins at 37 C, FIG. 1
Method: Compound 1 increased the phosphorylation of the AMPK substrate, acetyl-CoA carboxylase (ACC), in U-2 OS Flp-In T-REx mammalian cells. U-2 OS cells were treated with varying concentrations of Compound 1 for 30 mins at 37 C. Phosphorylation of ACC was assessed using the HTRF Cisbio (pACC kit). […] U-2 OS Flp-In T-REx cells were seeded at 50 K in a 96-well plate and left overnight at 37 C in DMEM GlutaMAX (Thermo Fisher Scientific) supplemented with 10% (vol/vol) FBS and 100 U/ml penicillin G, and 100 μg/ml streptomycin. Cells were treated for 30 mins with varying concentrations of Compound 1 in media lacking FBS and then cells were lysed in 50 μl of Cisbio lysis buffer #1 supplemented with blocking solution as per the manufacturer's protocol (Cisbio). Cells were lysed for 30 mins at room temperature before 16 μl of lysate was incubated with 4 μl of the HTRF antibodies (1:40 dilution of the acceptor and donor (p)ACC antibodies, as per the manufacturers protocol). Lysates were incubated overnight with the antibodies before the 665 nm/620 nm ratio was determined using a MolecularDevices i3 plate reader (with a HTRF cartridge add-on). […] Phosphorylation of ACC is extensively used as a cellular read-out of AMPK activity.

[1] = tested on: AMPK containing β1 wild-type (WT) subunit; test: pACC HTRF assay in AMPKβ1/β2 double knockout U-2 OS cells stably expressing β1 WT; format: cell-based, human; details: varying concentrations, 30 mins at 37 C, FIG. 2
Method: (§1) The β1 WT or β1 S108A mutant were stably expressed in […] double knockout cells and were treated with varying concentrations of Compound 1 for 30 mins at 37 C. Phosphorylation of ACC was assessed using the HTRF Cisbio (pACC kit).
(§2) AMPKβ1/β2 double knockout U-2 OS Flp-In™ T-Rex™ cell lines were generated by Horizon Discovery (Cambridge, UK). Cells were genotyped and analysed by Western blotting to confirm that there was a complete knockout of AMPKβ1/β2. We took these AMPKβ1/β2 double knockout cells, and re-introduced the expression of human β1 wild-type (WT) or a (31 Serine 108 to alanine mutation (S108A). This was achieved using the Flp-In™ system (Invitrogen) present in this cell line and stable cells expressing β1 WT or a β1 S108A mutant were generated according to the manufacturers' protocols. Re-expression of the β1 subunit was confirmed by Western blot analysis.
(§3) Cells stably expressing β1 WT or a β1 S108A mutant were treated with varying concentrations of Compound 1. Cells lysates were subjected to the pACC HTRF (Cisbio) assay to determine the level of phosphorylation of the AMPK substrate, ACC, in cell lysates, as in example 1.

[2] = tested on: AMPK containing β1 S108A (ADaM site) mutant subunit; test: pACC HTRF assay in AMPKβ1/β2 double knockout U-2 OS cells stably expressing β1 S108A mutant; format: cell-based, human; details: varying concentrations, 30 mins at 37 C, FIG. 2
Method: as §1, §2, §3

In the case of `C=C(C)[C@@H]1CCC(C)=C[C@H]1c1c(O)cc(CCCCC)cc1O` [Compound 1, 2-[(1R,6R)-3-Methyl-6-(1-methylethenyl)-2-cyclohexen-1-yl]-5-pentyl-1,3-benzenediol], the “phosphorylation of the AMPK substrate ACC (HTRF ratio 665/620 nm)” value (AMPK) is reported as “increased the phosphorylation of the AMPK substrate, ACC, in a dose-dependent manner”, the “phosphorylation of ACC (pACC), fold increase in activation” value [1] is reported as “able to dose-dependently increase pACC” and the “phosphorylation of ACC (pACC) / AMPK activation, fold increase in activation” value [2] is reported as “did not activate AMPK; also recorded: not able to increase the activity of AMPK”.
